Values of other authors as cited in patent publication EP0682945B1, “Oral sustained release preparation” (Lannacher Heilmittel Ges.m.b.H., priority 1994, dated 1995).

Details: orale Anwendung, im Mittel

Question: For `CN1CC[C@]23c4c5ccc(O)c4O[C@H]2[C@@H](O)C=C[C@H]3[C@H]1C5` [Morphin], which Bioverfügbarkeit is on record?
Answer: 38%
